Source: ChEMBL document CHEMBL2321830 (J Med Chem, 2013)
Positions count from the first letter of the chain named. pIC50: −log10 of the molar value.

Experiments:
[1] = target: T1, Aldo-keto reductase family 1 member C2 (Homo sapiens, UniProt P52895); experiment: Inhibition of human recombinant AKR1C2-mediated NADP+-dependent oxidation of S-(+)-1,2,3,4-tetrahydro-1-naphthol
T1 sequence (P52895 whole entry): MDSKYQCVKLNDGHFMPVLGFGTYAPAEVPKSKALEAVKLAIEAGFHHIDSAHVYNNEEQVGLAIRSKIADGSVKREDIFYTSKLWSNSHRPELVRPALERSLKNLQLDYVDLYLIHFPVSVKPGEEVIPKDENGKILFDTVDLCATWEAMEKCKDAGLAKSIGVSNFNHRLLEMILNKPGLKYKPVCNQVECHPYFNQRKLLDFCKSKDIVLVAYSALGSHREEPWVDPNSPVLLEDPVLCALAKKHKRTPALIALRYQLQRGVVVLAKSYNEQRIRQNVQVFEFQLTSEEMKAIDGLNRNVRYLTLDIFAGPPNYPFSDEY

[2] = target: T2, Prostaglandin G/H synthase 1 (Ovis aries, UniProt P05979)
T2 sequence (P05979 whole entry): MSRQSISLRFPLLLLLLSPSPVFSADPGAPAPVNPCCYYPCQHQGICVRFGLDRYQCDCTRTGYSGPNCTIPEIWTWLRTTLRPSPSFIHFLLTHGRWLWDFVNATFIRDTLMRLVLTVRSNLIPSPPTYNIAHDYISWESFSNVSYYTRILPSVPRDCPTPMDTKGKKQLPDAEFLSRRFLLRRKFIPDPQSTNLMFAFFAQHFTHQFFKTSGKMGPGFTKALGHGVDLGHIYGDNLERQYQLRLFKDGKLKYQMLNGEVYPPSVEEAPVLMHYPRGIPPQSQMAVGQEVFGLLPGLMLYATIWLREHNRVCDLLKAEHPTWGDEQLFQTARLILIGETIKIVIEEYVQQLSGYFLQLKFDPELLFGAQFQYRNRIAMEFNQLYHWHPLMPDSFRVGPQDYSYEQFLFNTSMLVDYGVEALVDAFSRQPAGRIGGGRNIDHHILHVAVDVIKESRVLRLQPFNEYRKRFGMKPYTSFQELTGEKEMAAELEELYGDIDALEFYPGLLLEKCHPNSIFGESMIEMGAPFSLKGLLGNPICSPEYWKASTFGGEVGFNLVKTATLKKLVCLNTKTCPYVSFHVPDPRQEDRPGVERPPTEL
Description: Inhibition of ovine COX1 by discontinuous radioactive TLC assay

[3] = target: T3, Aldo-keto reductase family 1 member C3 (Homo sapiens, UniProt P42330); experiment: Inhibition of human recombinant AKR1C3-mediated NADP+-dependent oxidation of S-(+)-1,2,3,4-tetrahydro-1-naphthol
T3 sequence (P42330 whole entry): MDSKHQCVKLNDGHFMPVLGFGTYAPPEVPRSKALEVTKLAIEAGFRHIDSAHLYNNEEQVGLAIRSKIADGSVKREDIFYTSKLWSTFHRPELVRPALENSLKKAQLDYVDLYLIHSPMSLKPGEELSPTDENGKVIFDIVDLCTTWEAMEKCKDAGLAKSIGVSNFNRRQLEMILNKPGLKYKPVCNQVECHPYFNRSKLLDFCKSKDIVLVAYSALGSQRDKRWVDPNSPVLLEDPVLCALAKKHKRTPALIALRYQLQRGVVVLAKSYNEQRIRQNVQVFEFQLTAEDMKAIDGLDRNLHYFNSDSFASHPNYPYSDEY

[4] = target: T4, Prostaglandin G/H synthase 2 (Mus musculus, UniProt Q05769)
T4 sequence (Q05769 whole entry): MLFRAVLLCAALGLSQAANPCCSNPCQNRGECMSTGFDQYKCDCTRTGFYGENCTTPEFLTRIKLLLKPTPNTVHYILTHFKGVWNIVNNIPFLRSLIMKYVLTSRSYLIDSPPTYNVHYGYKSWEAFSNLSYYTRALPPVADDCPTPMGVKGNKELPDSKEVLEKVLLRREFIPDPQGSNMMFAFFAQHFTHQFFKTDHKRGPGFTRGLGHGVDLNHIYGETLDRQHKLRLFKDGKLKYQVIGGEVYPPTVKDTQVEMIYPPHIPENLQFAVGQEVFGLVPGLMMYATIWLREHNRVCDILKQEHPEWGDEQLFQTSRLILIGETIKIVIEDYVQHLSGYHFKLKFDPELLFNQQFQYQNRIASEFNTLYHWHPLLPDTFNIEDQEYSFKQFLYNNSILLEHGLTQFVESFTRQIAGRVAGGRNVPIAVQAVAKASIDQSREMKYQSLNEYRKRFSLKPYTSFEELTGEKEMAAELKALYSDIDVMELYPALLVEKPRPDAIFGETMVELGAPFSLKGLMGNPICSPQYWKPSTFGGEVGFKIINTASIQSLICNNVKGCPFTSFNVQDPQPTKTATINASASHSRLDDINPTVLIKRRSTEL
Description: Inhibition of wild type mouse COX2 by discontinuous radioactive TLC assay

[5] = target: T5, Aldo-keto reductase family 1 member C1 (Homo sapiens, UniProt Q04828); experiment: Inhibition of human recombinant AKR1C1-mediated NADP+-dependent oxidation of S-(+)-1,2,3,4-tetrahydro-1-naphthol
T5 sequence (Q04828 whole entry): T1 sequence (P52895 whole entry) with V38T, H47R, V54L, S87C, M151V, H170R, L172Q

| pIC50 [1] | pIC50 [3] | pIC50 [4] | Compound | pIC50 [2] | pIC50 [5] |
| --- | --- | --- | --- | --- | --- |
| 5.21 | 6.60 | 7.05 | Cc1c(CC(=O)O)c2cc(F)ccc2n1C(=O)c1ccc(Cl)cc1 | 6.31 |  |
|  |  | 5.15 | CCc1c(CCC(=O)O)n(C(=O)c2ccc(Cl)cc2)c2ccc(OC)cc12 |  |  |

| Compound | pIC50 [1] | pIC50 [3] | pIC50 [4] | pIC50 [2] | pIC50 [5] |
| --- | --- | --- | --- | --- | --- |
| COc1ccc2c(c1)c(CC(=O)O)cn2C(=O)c1ccc(Cl)cc1 |  |  | 5.49 | 4.82 | < 4.00 |
